Measured values: PMC10962542, “Inhibition of Aurora‐A/N‐Myc Protein–Protein Interaction Using Peptidomimetics: Understanding the Role of Peptide Cyclization” (Chembiochem, 2023)
Like-named read-outs stand apart in the source and are kept apart here. Where a SMILES comes first, the peptide text is derived from it. Bridges are numbered along the chain shown (N, C = ends).

What was measured:
[1] = molecular target: T1, N‐Myc/Aurora‐A interaction (Aurora‐A122‐403‐C290A/C393A) (Homo sapiens, UniProt O14965, C290A/C393A); test: competition fluorescence anisotropy (FA) assay against fluorescein labelled N‐Myc61‐89; type: binding; also: equilibrated 2 h at room temperature
T1 construct: Aurora‐A 122‐403‐C290A/C393A protein was produced as described previously; made in house
T1 sequence (O14965 122-403 C290A/C393A): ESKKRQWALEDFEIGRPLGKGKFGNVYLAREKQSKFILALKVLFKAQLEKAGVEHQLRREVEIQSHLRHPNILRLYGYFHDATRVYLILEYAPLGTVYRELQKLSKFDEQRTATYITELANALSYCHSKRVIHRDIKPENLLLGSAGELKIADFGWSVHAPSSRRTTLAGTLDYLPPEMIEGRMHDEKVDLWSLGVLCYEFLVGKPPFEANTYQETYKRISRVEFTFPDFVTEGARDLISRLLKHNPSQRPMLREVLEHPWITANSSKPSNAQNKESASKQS
Protocol: Fluorescence anisotropy (FA) assays: All assays were performed using 384‐well plates (Greiner Bio‐one, UK). […] All samples were prepared in 25 mM Tris, 150 mM NaCl, 5 mM MgCl2, pH 7.5, and tested in triplicate using an EnVisionTM 2103 MultiLabel plate reader (Perkin Elmer; Waltham, MA, USA). The parameters were set as follows: Excitation wavelength=480 nm (30 nm bandwidth) and emission wavelength=535 nm (30 nm bandwidth). Measured data were processed and analysed as previously described.[31] Specifically, the perpendicular intensity (P) and parallel intensity (S) were subtracted by the control values and used for calculations of intensity and anisotropy using the following Equations 1, 2, 3, 4, and 5: (1) I=2PG+S (2) r=S-PG (3) Lb=r-rmin/λrmax-r+r-rmin (4) [drawing 1] (5) y=rmax+rmin-rmax/1+(x/x0)^p
For competition FA assays, the average anisotropy and the average standard deviation of the values derived from equation (2) were calculated and fit to a sigmoidal logistic model (equation (5)) using Origin 2021. […] Results are reported as IC50±SD, with data points representing the mean of three replicates and error bars indicating the corresponding SD. Where applicable, ΔΔG was determined as follows: ΔΔG=−RT ln (ΔIC50).

[2] = circular dichroism (CD) spectroscopy; type: physicochemical; details: 150 mM NaCl, 5 mM MgCl2, pH 7.5, 5 °C, n=2, free‐thiol (red) samples with 5 mol equivalents TCEP; for MRE222 (mean residue ellipticity at 222 nm): 25 mM Tris, mean ± SD, SD; for % Helicity (estimated): from MRE222 by equation 7, 25 mM Tris
Protocol: Circular dichroism (CD): All samples were prepared in Tris buffer (25 mM Tris, 150 mM NaCl, 5 mM MgCl2, pH 7.5) with the exception of free sulfhydryl peptides, to which Tris(2‐carboxyethyl)phosphine (TCEP; 5 mol eq. relative to the peptide) was added. CD spectra were recorded using an APP Chirascan CD spectropolarimeter and 1 mm pathlength quartz cuvettes. Sample concentrations were typically 30–120 μM, as determined by UV−V absorption based on a tryptophan extinction coefficient of 5600 M^−1 cm^−1 and, for mal‐constrained variants, a maleimide coefficient of 1700 M^−1 cm^−1.[16, 32] […] Spectra were recorded in duplicate at 5 °C, over wavelengths ranging from 290 to 180 nm, with data collected every 1 nm (1 nm s^−1). A background spectrum for CD buffer alone was also recorded and background ellipticity values were subtracted from raw sample ellipticity values (θ) when calculating mean residue ellipticities (MREs) using Equation 6: (6) MRE=(θλ-θ0)xMw/nxlxc
Where [θ]λ is the observed ellipticity at a given wavelength λ in mdeg, [θ]0 is the ellipticity observed for the buffer, Mw =molar weight of the peptide in g mol^−1, n=number of residues; c=sample concentration (mg mL^−1); l=pathlength of the cuvette in mm. Estimates of peptide % helicity were made using Equation 7, [33] (7) %helicity=(MRE222-MREcoil)x100/-425001-3/n
where MRE222 is the MRE value at 222 nm, MREcoil=640‐45T (with T in °C)=415 deg cm^2 dmol^−1 res^−1 at 5 °C, and n is the number of backbone amide bonds including the N‐terminal acetyl.

Row | SMILES | IC50 [1] [µM] | MRE222 (mean residue ellipticity at 222 nm) [2] [deg cm^−1 dmol^−1 res^−1] | % Helicity (estimated) [2] [%] | IC50 ([1]; SD) [µM]
1 | CSCC[C@@H]1NC(=O)[C@H](CCC(=O)O)NC(=O)[C@H]([C@@H](C)O)NC(=O)[C@@H](NC(=O)[C@H](Cc2c[nH]c3ccccc23)NC(=O)[C@H](CO)NC(=O)[C@@H]2CCCN2C(=O)[C@@H]2CCCN2C(=O)[C@H](CCC(=O)O)NC(=O)[C@H](CO)NC(=O)[C@H](CO)NC(=O)[C@H](Cc2c[nH]cn2)NC(=O)[C@H](CCC(=O)O)NC(=O)[C@H](C)NC(=O)[C@H](Cc2ccccc2)NC(=O)CNC(=O)[C@H](CCCNC(=N)N)NC(=O)[C@H](CO)NC(=O)[C@@H]2CCCN2C(=O)[C@H](CO)NC(=O)[C@H](CC(C)C)NC(C)=O)CSSC[C@@H](C(=O)N[C@@H](CC(C)C)C(=O)N[C@@H](CCC(=O)O)C(=O)N[C@@H](CC(N)=O)C(=O)N[C@@H](CCC(=O)O)C(=O)N[C@@H](CC(C)C)C(=O)N[C@@H](Cc2c[nH]c3ccccc23)C(=O)NCC(N)=O)NC1=O [N-Myc 61-89 V78C/L82C ox] (Ac-LSPSRGFAEHSSEPPSWCTEMCLENELWG-NH2; disulfide 18-22) | ≥ 500 | -2823 ± 48 | 8 ± 1 | –
2 | CSCC[C@H](NC(=O)[C@H](CCC(=O)O)NC(=O)[C@@H](NC(=O)[C@@H](NC(=O)[C@H](Cc1c[nH]c2ccccc12)NC(=O)[C@H](CO)NC(=O)[C@@H]1CCCN1C(=O)[C@@H]1CCCN1C(=O)[C@H](CCC(=O)O)NC(=O)[C@H](CO)NC(=O)[C@H](CO)NC(=O)[C@H](Cc1c[nH]cn1)NC(=O)[C@H](CCC(=O)O)NC(=O)[C@H](C)NC(=O)[C@H](Cc1ccccc1)NC(=O)CNC(=O)[C@H](CCCNC(=N)N)NC(=O)[C@H](CO)NC(=O)[C@@H]1CCCN1C(=O)[C@H](CO)NC(=O)[C@H](CC(C)C)NC(C)=O)C(C)C)[C@@H](C)O)C(=O)N[C@@H](CS)C(=O)N[C@@H](CC(C)C)C(=O)N[C@@H](CCC(=O)O)C(=O)N[C@@H](CC(N)=O)C(=O)N[C@@H](CS)C(=O)N[C@@H](CC(C)C)C(=O)N[C@@H](Cc1c[nH]c2ccccc12)C(=O)NCC(N)=O [N-Myc 61-89L82C/E86C red] (Ac-LSPSRGFAEHSSEPPSWVTEMCLENCLWG-NH2) | – | -2348 ± 49 | 7 ± 1 | 120 ± 14
3 | CSCC[C@H](NC(=O)[C@H](CCC(=O)O)NC(=O)[C@@H](NC(=O)[C@@H](NC(=O)[C@H](Cc1c[nH]c2ccccc12)NC(=O)[C@H](CO)NC(=O)[C@@H]1CCCN1C(=O)[C@@H]1CCCN1C(=O)[C@H](CCC(=O)O)NC(=O)[C@H](CO)NC(=O)[C@H](CO)NC(=O)[C@H](Cc1c[nH]cn1)NC(=O)[C@H](CCC(=O)O)NC(=O)[C@H](C)NC(=O)[C@H](Cc1ccccc1)NC(=O)CNC(=O)[C@H](CCCNC(=N)N)NC(=O)[C@H](CO)NC(=O)[C@@H]1CCCN1C(=O)[C@H](CO)NC(=O)[C@H](CC(C)C)NC(C)=O)C(C)C)[C@@H](C)O)C(=O)N[C@@H](CC(C)C)C(=O)N[C@H]1CSSC[C@@H](C(=O)N[C@@H](Cc2c[nH]c3ccccc23)C(=O)NCC(N)=O)NC(=O)[C@H](CCC(=O)O)NC(=O)[C@H](CC(N)=O)NC(=O)[C@H](CCC(=O)O)NC1=O [N-Myc 61-89L83C/L87C ox] (Ac-LSPSRGFAEHSSEPPSWVTEMLCENECWG-NH2; disulfide 23-27) | – | -2223 ± 37 | 7 ± 1 | 103 ± 11
4 | CSCC[C@H](NC(=O)[C@H](CCC(=O)O)NC(=O)[C@@H](NC(=O)[C@@H](NC(=O)[C@H](Cc1c[nH]c2ccccc12)NC(=O)[C@H](CO)NC(=O)[C@@H]1CCCN1C(=O)[C@@H]1CCCN1C(=O)[C@H](CCC(=O)O)NC(=O)[C@H](CO)NC(=O)[C@H](CO)NC(=O)[C@H](Cc1c[nH]cn1)NC(=O)[C@H](CCC(=O)O)NC(=O)[C@H](C)NC(=O)[C@H](Cc1ccccc1)NC(=O)CNC(=O)[C@H](CCCNC(=N)N)NC(=O)[C@H](CO)NC(=O)[C@@H]1CCCN1C(=O)[C@H](CO)NC(=O)[C@H](CC(C)C)NC(C)=O)C(C)C)[C@@H](C)O)C(=O)N[C@@H](CC(C)C)C(=O)N[C@@H](CS)C(=O)N[C@@H](CCC(=O)O)C(=O)N[C@@H](CC(N)=O)C(=O)N[C@@H](CCC(=O)O)C(=O)N[C@@H](CS)C(=O)N[C@@H](Cc1c[nH]c2ccccc12)C(=O)NCC(N)=O [N-Myc 61-89L83C/L87C red] (Ac-LSPSRGFAEHSSEPPSWVTEMLCENECWG-NH2) | – | -1746 ± 74 | 6 ± 1 | 181 ± 9

Further molecules by falling IC50 ([1]; SD), results first:

Row | IC50 [1] [µM] | MRE222 (mean residue ellipticity at 222 nm) [2] [deg cm^−1 dmol^−1 res^−1] | % Helicity (estimated) [2] [%] | IC50 ([1]; SD) [µM] | SMILES
5 | – | -2198 ± 93 | 7 ± 1 | 164 ± 6 | CC(=O)N[C@@H](CC(C)C)C(=O)N[C@@H](CO)C(=O)N1CCC[C@H]1C(=O)N[C@@H](CO)C(=O)N[C@@H](CCCNC(=N)N)C(=O)NCC(=O)N[C@@H](Cc1ccccc1)C(=O)N[C@@H](C)C(=O)N[C@@H](CCC(=O)O)C(=O)N[C@@H](Cc1c[nH]cn1)C(=O)N[C@@H](CO)C(=O)N[C@@H](CO)C(=O)N[C@@H](CCC(=O)O)C(=O)N1CCC[C@H]1C(=O)N1CCC[C@H]1C(=O)N[C@@H](CO)C(=O)N[C@@H](Cc1c[nH]c2ccccc12)C(=O)N[C@H](C(=O)N[C@H](C(=O)N[C@@H](CCC(=O)O)C(=O)N[C@@H](CS)C(=O)N[C@@H](CC(C)C)C(=O)N[C@@H](CC(C)C)C(=O)N[C@@H](CCC(=O)O)C(=O)N[C@@H](CS)C(=O)N[C@@H](CCC(=O)O)C(=O)N[C@@H](CC(C)C)C(=O)N[C@@H](Cc1c[nH]c2ccccc12)C(=O)NCC(N)=O)[C@@H](C)O)C(C)C [N-Myc 61-89M81C/N85C red] (Ac-LSPSRGFAEHSSEPPSWVTECLLECELWG-NH2)
6 | – | -2562 ± 106 | 8 ± 1 | 111 ± 5 | CSCC[C@H](NC(=O)[C@H](CS)NC(=O)[C@@H](NC(=O)[C@@H](NC(=O)[C@H](Cc1c[nH]c2ccccc12)NC(=O)[C@H](CO)NC(=O)[C@@H]1CCCN1C(=O)[C@@H]1CCCN1C(=O)[C@H](CCC(=O)O)NC(=O)[C@H](CO)NC(=O)[C@H](CO)NC(=O)[C@H](Cc1c[nH]cn1)NC(=O)[C@H](CCC(=O)O)NC(=O)[C@H](C)NC(=O)[C@H](Cc1ccccc1)NC(=O)CNC(=O)[C@H](CCCNC(=N)N)NC(=O)[C@H](CO)NC(=O)[C@@H]1CCCN1C(=O)[C@H](CO)NC(=O)[C@H](CC(C)C)NC(C)=O)C(C)C)[C@@H](C)O)C(=O)N[C@@H](CC(C)C)C(=O)N[C@@H](CC(C)C)C(=O)N[C@@H](CS)C(=O)N[C@@H](CC(N)=O)C(=O)N[C@@H](CCC(=O)O)C(=O)N[C@@H](CC(C)C)C(=O)N[C@@H](Cc1c[nH]c2ccccc12)C(=O)NCC(N)=O [N-Myc 61-89E80C/E84C red] (Ac-LSPSRGFAEHSSEPPSWVTCMLLCNELWG-NH2)
